Source: patent publication US20200246316A1, “METHODS OF TREATING POST-SURGICAL PAIN WITH A THIAZOLINE ANTI-HYPERALGESIC AGENT” (CERSCI THERAPEUTICS, INC., priority 2019, published 2020)
Counter-ions that a name gives are not always drawn. Like-named read-outs stand apart in the source and are kept apart here.

Experiments:
peroxynitrite = assay: Models of protein nitration; format: biochemical; conditions: physiological conditions (neutral pH)
Description: In cell-based assays of PN-mediated cytotoxicity, Compound 1 is protective. […] Chemically, Compound 1 can also react stoichiometrically with peroxynitrite to form a para-nitro adduct. Without being bound by theory, by targeting and removing peroxynitrite and peroxide, Compound 1 can disrupt the ensuing cascades that lead to hypersensitivity (protein modification, ion channel hyperexcitation) thus providing a long duration event in terms of pain relief.

[1] = Dog pharmacokinetics after single PO (10 mg/kg) and IV (3 mg/kg) dose; format: in vivo; conditions: for bioavailability: 10 mg/kg PO vs 3 mg/kg IV
Experimental: The objective of the first single dose non-GLP study in dogs was to determine the pharmacokinetics and bioavailability of Compound 1 after a single oral (gavage) or single intravenous (IV) dose in dogs. The test article formulation was administered to three male dogs orally via gavage at a dose level of 10 mg/kg (dosing volume of 2 mL/kg body weight). Following a wash-out period of a minimum of three days, the same three dogs were administered the test article formulation via an IV bolus push over approximately 1-2 minutes at a dose level of 3 mg/kg (dosing volume of 0.5 mL/kg). The vehicle for oral gavage dosing was 0.5% HPMC; the vehicle for IV injection was sterile phosphate buffered saline (PBS; pH 7.4). […] Animals were returned to quarantine after the last blood collection.
After IV administration at 3 mg/kg, the test article was quantifiable up to the 4-hour time point for all animals and tmax was about 5 minutes. Since the test article was not quantifiable at the 6-hour and subsequent time points for IV administration, […] and bioavailability could not be calculated.

[2] = Dog 7-day repeat dose PO study; format: in vivo; conditions: plasma, N = 1
Experimental: The objective was to develop a preliminary toxicity profile of Compound 1 following daily oral (gavage) administration for 7 days to male and female dogs to support dose selection for a 28-day toxicity study in dogs. Doses were selected based on the results of the MTD phase. Dose levels were 0 (Vehicle Control), 200, 350 and 400 mg/kg (1 dog/sex/group). The vehicle was 0.5% aqueous HPMC.
The animals used in this study were returned to the holding colony

[3] = Protein binding across species; format: in vitro ADME
P-gp = target: T1, P-gp (Homo sapiens, UniProt P08183); assay: Inhibition of efflux (ABC) transporters; format: in vitro ADME
T1 construct: Caco-2 cells; endogenous in cells; host or cells: Caco-2 cells
T1 sequence (P08183 whole entry): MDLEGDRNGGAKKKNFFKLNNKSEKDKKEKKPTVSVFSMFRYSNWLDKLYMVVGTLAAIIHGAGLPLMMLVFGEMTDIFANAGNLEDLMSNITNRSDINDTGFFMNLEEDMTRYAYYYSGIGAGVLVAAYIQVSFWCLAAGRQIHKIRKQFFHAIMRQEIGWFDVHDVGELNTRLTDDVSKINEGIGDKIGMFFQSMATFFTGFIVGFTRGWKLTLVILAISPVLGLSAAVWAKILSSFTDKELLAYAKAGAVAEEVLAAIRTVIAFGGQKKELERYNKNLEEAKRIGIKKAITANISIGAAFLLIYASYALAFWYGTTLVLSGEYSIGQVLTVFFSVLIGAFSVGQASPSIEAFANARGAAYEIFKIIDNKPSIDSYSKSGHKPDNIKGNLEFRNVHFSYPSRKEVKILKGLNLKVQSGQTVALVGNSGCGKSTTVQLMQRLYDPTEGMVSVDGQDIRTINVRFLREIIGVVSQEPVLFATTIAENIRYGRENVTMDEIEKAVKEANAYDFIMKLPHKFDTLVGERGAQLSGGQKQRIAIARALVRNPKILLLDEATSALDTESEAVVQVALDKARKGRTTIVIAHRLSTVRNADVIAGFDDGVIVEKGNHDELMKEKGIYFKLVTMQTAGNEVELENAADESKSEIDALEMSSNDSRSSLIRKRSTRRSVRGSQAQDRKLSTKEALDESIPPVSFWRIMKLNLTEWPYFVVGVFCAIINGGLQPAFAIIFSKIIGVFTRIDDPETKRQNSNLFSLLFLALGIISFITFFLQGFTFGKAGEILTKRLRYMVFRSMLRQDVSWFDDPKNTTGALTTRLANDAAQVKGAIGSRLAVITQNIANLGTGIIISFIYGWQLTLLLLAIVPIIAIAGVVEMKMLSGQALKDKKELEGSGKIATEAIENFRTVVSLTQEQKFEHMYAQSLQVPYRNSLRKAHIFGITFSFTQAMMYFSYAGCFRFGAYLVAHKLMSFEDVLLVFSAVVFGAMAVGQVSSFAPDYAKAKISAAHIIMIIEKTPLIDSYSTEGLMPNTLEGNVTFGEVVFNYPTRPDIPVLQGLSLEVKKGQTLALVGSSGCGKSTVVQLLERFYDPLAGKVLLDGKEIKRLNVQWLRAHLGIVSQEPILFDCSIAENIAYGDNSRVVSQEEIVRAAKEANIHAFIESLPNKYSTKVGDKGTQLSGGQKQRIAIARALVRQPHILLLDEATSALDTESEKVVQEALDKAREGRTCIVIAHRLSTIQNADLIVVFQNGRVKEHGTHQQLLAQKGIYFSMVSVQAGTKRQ

OATP1B3 = target: T2, OATP1B3 (Homo sapiens, UniProt Q9NPD5); assay: Inhibition of uptake (SLC) transporters; format: in vitro ADME
T2 construct: expressed in transfected cells; host or cells: HEK293 cells
T2 sequence (Q9NPD5 whole entry): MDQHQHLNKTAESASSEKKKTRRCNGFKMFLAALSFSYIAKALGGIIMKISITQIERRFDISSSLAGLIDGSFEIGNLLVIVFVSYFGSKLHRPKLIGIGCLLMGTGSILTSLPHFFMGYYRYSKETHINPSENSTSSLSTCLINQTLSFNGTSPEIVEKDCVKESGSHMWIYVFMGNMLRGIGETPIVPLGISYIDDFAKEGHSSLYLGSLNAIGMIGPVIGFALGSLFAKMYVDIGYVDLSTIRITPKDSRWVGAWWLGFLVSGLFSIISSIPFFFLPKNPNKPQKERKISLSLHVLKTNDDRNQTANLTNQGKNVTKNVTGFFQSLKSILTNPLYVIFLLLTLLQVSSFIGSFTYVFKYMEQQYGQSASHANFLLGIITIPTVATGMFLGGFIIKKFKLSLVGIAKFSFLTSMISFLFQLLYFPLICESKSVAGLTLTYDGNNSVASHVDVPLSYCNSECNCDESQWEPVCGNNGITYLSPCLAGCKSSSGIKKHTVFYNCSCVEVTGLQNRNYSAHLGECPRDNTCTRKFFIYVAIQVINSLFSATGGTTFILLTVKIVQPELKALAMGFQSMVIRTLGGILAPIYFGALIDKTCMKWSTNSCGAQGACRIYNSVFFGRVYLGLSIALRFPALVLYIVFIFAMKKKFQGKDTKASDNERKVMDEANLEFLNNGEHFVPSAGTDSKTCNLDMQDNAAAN

OCT = target: T3, OCT (Homo sapiens, UniProt O15245); assay: Inhibition of uptake (SLC) transporters; format: in vitro ADME; conditions: OCT1; HEK293 cells, probe [14C]-tetraethylammonium bromide (5 μM), 0.3-600 μM tested
T3 construct: expressed in transfected cells; host or cells: HEK293 cells
T3 sequence (O15245 whole entry): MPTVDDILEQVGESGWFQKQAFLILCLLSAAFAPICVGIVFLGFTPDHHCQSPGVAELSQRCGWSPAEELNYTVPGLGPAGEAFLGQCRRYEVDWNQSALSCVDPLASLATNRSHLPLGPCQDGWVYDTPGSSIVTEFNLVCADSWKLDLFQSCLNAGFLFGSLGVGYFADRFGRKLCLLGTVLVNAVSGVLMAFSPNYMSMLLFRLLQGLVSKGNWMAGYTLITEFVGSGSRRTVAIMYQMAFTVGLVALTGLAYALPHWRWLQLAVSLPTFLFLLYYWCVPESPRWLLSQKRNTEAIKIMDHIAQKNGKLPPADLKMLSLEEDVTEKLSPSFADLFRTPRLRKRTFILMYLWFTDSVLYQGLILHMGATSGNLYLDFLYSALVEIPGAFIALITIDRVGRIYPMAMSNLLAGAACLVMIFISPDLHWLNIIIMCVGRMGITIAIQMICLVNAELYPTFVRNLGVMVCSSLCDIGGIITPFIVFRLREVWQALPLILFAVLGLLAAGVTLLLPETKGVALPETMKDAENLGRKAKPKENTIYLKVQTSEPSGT

[4] = Cytotoxicity by lactate dehydrogenase (LDH) release; format: cell-based; conditions: dog, MDCKII control cells, read-out: percent cytotoxicity (LDH release)
in vivo = conditions: rat, po, 100 mg/kg; for concentration at 1 h: 1 h post-dose; for concentration at 2 h: 2 h post-dose; for concentration at 0.5 h: 0.5 h post-dose
Experimental: In both assays, a deuterated (Compound 1-d4) internal standard was used.
The objective of this non-GLP study was to determine the pharmacokinetics of Compound 1 after a single oral (gavage) dose in rats, and to determine if Compound 1 undergoes epimerization in the rat. Compound 1 was administered to CD® IGS [Crl:CD(SD)] (Sprague Dawley) rats (5/sex/group) as a single oral gavage dose of 100 mg/kg in a vehicle of 0.5% aqueous HPMC. Rats were dosed at a dose volume of 10 mL/kg body weight.

[5] = female, 200 mg/kg, Day 1, 200 mg/kg PO, F
[6] = female, 200 mg/kg, Day 7, 200 mg/kg PO, F
[7] = female, 350 mg/kg, Day 1, 350 mg/kg PO, F
[8] = female, 350 mg/kg, Day 7, 350 mg/kg PO, F
[9] = female, 400 mg/kg, Day 1, 400 mg/kg PO, F
[10] = female, 400 mg/kg, Day 7, 400 mg/kg PO, F
[11] = male, 200 mg/kg, Day 1, 200 mg/kg PO, M
[12] = male, 200 mg/kg, Day 7, 200 mg/kg PO, M
[13] = male, 350 mg/kg, Day 1, 350 mg/kg PO, M
[14] = male, 350 mg/kg, Day 7, 350 mg/kg PO, M
[15] = male, 400 mg/kg, Day 1, 400 mg/kg PO, M
[16] = male, 400 mg/kg, Day 7, 400 mg/kg PO, M
[17] = female, Sprague Dawley, Compound 1 Concentration in rat plasma, 100 mg/kg single PO, individual animals
[18] = female, Sprague-Dawley (CD IGS, Crl:CD(SD))
[19] = male, Sprague Dawley, Compound 1 Concentration in rat plasma, 100 mg/kg single PO, individual animals
[20] = male, Sprague Dawley, Compound 1 Concentration in rat plasma, 100 mg/kg single PO, Average
[21] = male, Sprague-Dawley (CD IGS, Crl:CD(SD))

For `CC1(C)SC(Nc2ccccc2O)=N[C@@H]1C(=O)O` [Compound 1, (R)-2-(2-hydroxyphenylamino)-5,5-dimethyl-4,5-dihydrothiazole-4-carboxylic acid mono-hydrochloride], the “removal of peroxynitrite in models of protein nitration” value (peroxynitrite) was “catalytically remove peroxynitrite”, the “median t1-2” value ([1]; 10 mg/kg PO) was 1.4 h and the “epimerization (chiral column)” value ([1]; dog plasma) was “did not provide any evidence of epimerization”. It also gave a bioavailability ([1]; male, dog, plasma, oral, 10 mg/kg, read-out: mean oral bioavailability) of 72%, a Tmax ([1]; male, dog, plasma, 3 mg/kg IV) of ~0.0833 h and a Cmax ([1]; male, dog, plasma, 10 mg/kg PO) of 12 µg/mL. It also gave a Tmax ([1]; male, dog, plasma, 10 mg/kg PO) of ~1 h, a bioavailability ([1]; male, dog, plasma, read-out: oral bioavailability range) of 56 to 91% and an AUC(0-t) [2, 5] of 582 µg·h/mL. For the same compound, the Cmax [2, 5] was 152 µg/mL, the half-life [2, 5] was 1.3 h and the AUC(0-t) [2, 6] was 411 µg·h/mL. For the same compound, the Cmax [2, 6] was 103 µg/mL, the half-life [2, 6] was 1.5 h and the AUC(0-t) [2, 7] was 834 µg·h/mL. It also gave a Cmax [2, 7] of 228 µg/mL, a half-life [2, 7] of 1.2 h and an AUC(0-t) [2, 8] of 738 µg·h/mL. The Cmax [2, 8] was 207 µg/mL, the Tmax [2, 8] was 0.5 h and the half-life [2, 8] was 2.4 h. The AUC(0-t) [2, 9] was 464 µg·h/mL, the Cmax [2, 9] was 109 µg/mL and the Tmax [2, 9] was 1 h. It also gave an AUC(0-t) [2, 10] of 751 µg·h/mL, a Cmax [2, 10] of 183 µg/mL and a half-life [2, 10] of 2.5 h. It also gave an AUC(0-t) [2, 11] of 538 µg·h/mL, a Cmax [2, 11] of 150 µg/mL and a half-life [2, 11] of 1.1 h. It also gave an AUC(0-t) [2, 12] of 540 µg·h/mL, a Tmax [2, 12] of 1 h and a half-life [2, 12] of 1.4 h. The AUC(0-t) [2, 13] was 613 µg·h/mL, the Cmax [2, 13] was 176 µg/mL and the half-life [2, 13] was 1.1 h. It also gave an AUC(0-t) [2, 14] of 591 µg·h/mL, a Cmax [2, 14] of 184 µg/mL and a Tmax [2, 14] of 1 h. The half-life [2, 14] was 1.2 h, the AUC(0-t) [2, 15] was 657 µg·h/mL and the Cmax [2, 15] was 167 µg/mL. It also gave a half-life [2, 15] of 1.2 h, an AUC(0-t) [2, 16] of 210 µg·h/mL and a Cmax [2, 16] of 69 µg/mL. The Tmax [2, 16] was 1 h, the half-life [2, 16] was 1.3 h and the protein binding [3] was “moderately protein-bound”. The IC50 (P-gp; Caco-2 cells, probe substrate digoxin (10 μM), bidirectional transport, 1-600 μM tested) was > 600 µM, the “transporter inhibition” value (P-gp; P-gp) was “does not inhibit” and the IC50 (OATP1B3; HEK293 cells, probe [3H]-estradiol-17β-glucuronide (0.05 μM), 0.3-600 μM tested) was > 600 µM. The “transporter inhibition” value (OATP1B3; OATP1B3) was “does not inhibit”, the IC50 (OCT) was > 600 µM and the cytotoxicity at 100 µM ([4]; 100 μM) was 31.3%. For the same compound, the cytotoxicity at 600 µM ([4]; 600 μM) was 33.6%, the concentration at 1 h (in vivo; female, Sprague Dawley (CD IGS, Crl:CD(SD)), Compound 1 Concentration in rat plasma, Female, 100 mg/kg single PO, Average) was 60.1 µg/mL and the concentration at 2 h (in vivo; female, Sprague Dawley (CD IGS, Crl:CD(SD)), Compound 1 Concentration in rat plasma, Female, 100 mg/kg single PO, individual animals) was 58.2 µg/mL. The concentration at 4 h (in vivo; female, Sprague Dawley (CD IGS, Crl:CD(SD)), Compound 1 Concentration in rat plasma, Female, 100 mg/kg single PO, 4 h post-dose, Average) was 22.6 µg/mL, the concentration at 0.5 h (in vivo; [17]) was 34.3 µg/mL and the concentration at 1 h (in vivo; [17]) was 53.9 µg/mL. The Cmax (in vivo; [18]) was 60 µg/mL, the half-life (in vivo; [18]) was 4 h and the concentration at 0.5 h (in vivo; [19]) was 13.8 µg/mL. For the same compound, the concentration at 1 h (in vivo; [20]) was 14.9 µg/mL, the concentration at 2 h (in vivo; [20]) was 14.3 µg/mL and the concentration at 2 h (in vivo; [19]) was 16.3 µg/mL. For the same compound, the concentration at 8 h (in vivo; male, Sprague Dawley, Compound 1 Concentration in rat plasma, 100 mg/kg single PO, 8 h post-dose, individual animals) was 1.61 µg/mL, the Cmax (in vivo; [21]) was 15 µg/mL and the Tmax (in vivo; [21]) was 1 h. The half-life (in vivo; [21]) was 7 h.
